Results published in article PMC12133000 (PLOS One, 2025).
Read-outs that look alike come from different tables or passages of the source.

Key:
[1] = tested on: rat liver microsomes (RLMs); assay: EGFR TKI screening: rivaroxaban metabolite M-2 formation in RLM incubation; format: in vitro ADME
Procedure: The system was preincubated at 37 °C for 5 min, followed by the addition of NADPH (1 mM) to initiate the reaction. After incubating for an additional 30 min, a 200 μL of acetonitrile solution containing 200 ng/mL midazolam was introduced. The mixture was vortexed for 30 s, centrifuged at 13000 rpm for 5 min, and the supernatant was removed. Three samples were collected for each group.

CYP2J2 = details: cited from earlier work; for inhibition of rivaroxaban hydroxylation by CYP2J2: in vitro ref 24
[2] = target: rat liver microsomes (RLMs); assay: Inhibitory mechanism (Ki, αKi, Lineweaver-Burk plots) in RLMs; details: read-out: inhibitory constant (Ki), substrate rivaroxaban
Excerpt: Ki and αKi values were computed, and the inhibitory mechanism was examined using Lineweaver–Burk plots.

[3] = patients on rivaroxaban, combination with clarithromycin ref 33; cited from earlier work
P-gp = tested on: P-gp; parameters: method as in PMID 35174529; details: in vitro, combination with rivaroxaban ref 21; read-out: IC50 (inhibitory properties of TKIs on DOACs, P-gp mediated); cited from earlier work
CYP3A4 = details: in vitro ref 25; cited from earlier work
[4] = combination with TKI ref 25; cited from earlier work

Question: Which results are given for C=CC(=O)Nc1cccc(Oc2nc(Nc3ccc(N4CCN(C)CC4)c(F)c3)nc3[nH]ccc23)c1 [avitinib, Avitinib]?
Answer: ratio of the metabolite concentration relative to the control ([1]; 100 μM EGFR TKI, 0.5 mg/mL RLMs, rivaroxaban metabolite M-2, average): 5.6%; effect on rivaroxaban metabolism (metabolite generation rate vs control) ([1]; 100 μM EGFR TKI, RLMs): significantly inhibited; inhibition pattern with rivaroxaban as probe substrate (CYP2J2): atypical inhibitory kinetics; inhibition of rivaroxaban hydroxylation by CYP2J2 (CYP2J2): concentration-dependent inhibition; Ki [2]: 3.24 µM

Question: With CC[C@H]1OC(=O)[C@H](C)[C@@H](O[C@H]2C[C@@](C)(OC)[C@@H](O)[C@H](C)O2)[C@H](C)[C@@H](O[C@@H]2O[C@H](C)C[C@H](N(C)C)[C@H]2O)[C@](C)(OC)C[C@@H](C)C(=O)[C@H](C)[C@@H](O)[C@]1(C)O [clarithromycin] as the compound, how does the “increase in the AUC value for rivaroxaban” value [3] read?
Answer: two-fold increase

Question: For COc1cc2ncnc(Nc3ccc(F)c(Cl)c3)c2cc1NC(=O)/C=C/CN1CCCCC1 [dacomitinib], which “effect on rivaroxaban metabolism (metabolite generation rate vs control)” value (from here on “effect … (metabolite generation rate vs control)”) ([1]; 100 μM EGFR TKI, RLMs) is on record?
Answer: significantly inhibited

Question: Which IC50 (P-gp) does the source give for C#Cc1cccc(Nc2ncnc3cc(OCCOC)c(OCCOC)cc23)c1 [erlotinib] here?
Answer: < 10 µM

Question: With COc1cc2ncnc(Nc3ccc(F)c(Cl)c3)c2cc1OCCCN1CCOCC1 [gefitinib, Gefitinib] as the compound, how does the “inhibition of CYP3A4-mediated rivaroxaban metabolism” value (CYP3A4) read?
Answer: potently inhibited

Question: With Cc1ccc(NC(=O)c2ccc(CN3CCN(C)CC3)cc2)cc1Nc1nccc(-c2cccnc2)n1 [imatinib] as the compound, how does the “increase of rivaroxaban AUC” value [4] read?
Answer: 119.96%

Question: And the “increase of rivaroxaban Cmax” value [4]?
Answer: 90.43%

Question: For CS(=O)(=O)CCNCc1ccc(-c2ccc3ncnc(Nc4ccc(OCc5cccc(F)c5)c(Cl)c4)c3c2)o1 [lapatinib], which “effect … (metabolite generation rate vs control)” value [1] is on record?
Answer: significantly inhibited

Question: For CCOc1cc2ncc(C#N)c(Nc3ccc(OCc4ccccn4)c(Cl)c3)c2cc1NC(=O)/C=C/CN(C)C [neratinib], which “effect … (metabolite generation rate vs control)” value [1] is on record?
Answer: significantly inhibited

Question: With C=CC(=O)Nc1cc(Nc2nccc(-c3cn(C)c4ccccc34)n2)c(OC)cc1N(C)CCN(C)C [osimertinib] as the compound, how does the “inhibition pattern with rivaroxaban as probe substrate” value (CYP2J2) read?
Answer: competitive inhibition

Question: What about the “inhibition of rivaroxaban hydroxylation by CYP2J2” value (CYP2J2) of the same compound?
Answer: concentration-dependent inhibition

Question: Which “reduction in exposure to rivaroxaban in vivo” value [4] does the source give for CCN(CC)CCNC(=O)c1c(C)[nH]c(/C=C2\C(=O)Nc3ccc(F)cc32)c1C [sunitinib] here?
Answer: 62.32%
